ChEMBL document CHEMBL1146228, “Stellettins L and M, cytotoxic isomalabaricane-type triterpenes, and sterols from the marine sponge Stelletta tenuis” (J Nat Prod, 2007)

Legend:
Assay type in all cases: functional, cell-based
[1] = tested on: A549; test: Cytotoxicity against A549 cells after 48 hrs by MTT assay; conditions: Homo sapiens, A549, 48 h
[2] = tested on: SMMC-7721; test: Cytotoxicity against SMMC7721 cells after 48 hrs by MTT assay; conditions: Homo sapiens, SMMC-7721, 48 h
[3] = tested on: HT-29; test: Cytotoxicity against HT29 cells after 48 hrs by MTT assay; conditions: Homo sapiens, HT-29, 48 h
[4] = tested on: AGS; test: Cytotoxicity against AGS cells after 48 hrs by MTT assay; conditions: Homo sapiens

Row | Structure (SMILES) | IC50 [1] [µM] | IC50 [2] [µM] | IC50 [3] [µM] | IC50 [4] [µM]
1 | O=c1[nH]cc(F)c(=O)[nH]1 [FLUOROURACIL] | 9.2 | 51 | 540 | 370
2 | CC[C@]1(O)C[C@H]2CN(CCc3c([nH]c4ccccc34)[C@@](C(=O)OC)(c3cc4c(cc3OC)N(C=O)[C@H]3[C@@](O)(C(=O)OC)[C@H](OC(C)=O)[C@]5(CC)C=CCN6CC[C@]43[C@@H]65)C2)C1 [VINCRISTINE] | 0.36 | < 0.12 | 0.21 | < 0.12
3 | CC(/C=C/C=C(\C)C(=O)O)=C\C=C\C(C)=C1\C(=O)C[C@H]2[C@@]3(C)CC[C@H](O)C(C)(C)[C@@H]3CC[C@]12C [STELLETTIN L] | 28 | 120 | 33 | 3.9
4 | CC(/C=C/C=C(C)/C=C/C=C(\C)C(=O)O)=C1/C(=O)C[C@H]2[C@@]3(C)CC[C@H](O)C(C)(C)[C@@H]3CC[C@]12C [STELLETTIN M] | 34 | 90 | 42 | 2.1
